Assay results as given in patent publication US7632851B2, “Benzo[1,2,5]oxadiazoles and benzol[1,2,5]thiadiazoles useful as histopathological staining agents, imaging agents and biomarkers” (Novartis AG, priority 2003, dated 2009).

test: Fluorescence of the compound (precondition of the staining test); format: physicochemical
Procedure: Four-micrometer thick paraffin sections from an APP23 mouse at 26 months of age are deparaffinized in xylene and rehydrated. 10 mg of the compound are dissolved in 1 mL DMSO and diluted with deionized water 1:10. This staining solution is applied on sections for about 20 min. Section background is cleared by washing with 95% ethanol. Finally sections are dehydrated in 99% ethanol, cleared in xylene and mounted with Vectashield™. Sections are investigated using fluorescence microscopy with the following filter combination: Excitation 450490 nm, emission 510 nm. Twenty micrometer thick cryotom sections from a AD brain cortex are air dried and fixated in 4% PFA for 5 min. After washing in tap water sections are stained either with Thioflavine S or with the compound for 5 min and further processed as described above. The compound is dissolved in DMSO and diluted to a final concentration of 0.01% with 50% Ethanol, Thioflavine S is dissolved in 50% Ethanol, final concentration is 0.01%.

| Structure (SMILES) | Fluorescence |
| --- | --- |
| O=C(NCCF)c1cncc(-c2ccc3nonc3c2)c1 [Example 11, 5Benzo[1,2,5]oxadiazol-5-yl-N-(2-fluoro-ethyl)-nicotinamide] | not fluorescent |
| CNc1cccc(-c2ccc3nonc3c2)c1 [Example 4, (3Benzo[1,2,5]oxadiazol-5-yl-phenyl)-methyl-amine] | not fluorescent |
| CNc1ccc(-c2ccc3nonc3c2)cc1[N+](=O)[O-] [Example 21, (4Benzo[1,2,5]oxadiazol-5-yl-2-nitro-phenyl)-methyl-amine] | not fluorescent |
| O=C(NCCF)c1cnccc1-c1ccc2nonc2c1 [Example 12, 4Benzo[1,2,5]oxadiazol-5-yl-N-(2-fluoro-ethyl)-nicotinamide] | not fluorescent |
| FCCOc1ccc(-c2ccc3nonc3c2)cc1 [Example 5, 5-[4-(2-Fluoro-ethoxy)-phenyl]-benzo[1,2,5]oxadiazole] | not fluorescent |
